Assay results from US10774080B2, “Pyrimidine compound as JAK kinase inhibitor” (THERAVANCE BIOPHARMA R&D IP, LLC, priority 2017, dated 2020).

Target: T1, JAK3 (Homo sapiens, UniProt P52333)
T1 construct: GST; purchased Life Technologies
T1 sequence (P52333 1-1124): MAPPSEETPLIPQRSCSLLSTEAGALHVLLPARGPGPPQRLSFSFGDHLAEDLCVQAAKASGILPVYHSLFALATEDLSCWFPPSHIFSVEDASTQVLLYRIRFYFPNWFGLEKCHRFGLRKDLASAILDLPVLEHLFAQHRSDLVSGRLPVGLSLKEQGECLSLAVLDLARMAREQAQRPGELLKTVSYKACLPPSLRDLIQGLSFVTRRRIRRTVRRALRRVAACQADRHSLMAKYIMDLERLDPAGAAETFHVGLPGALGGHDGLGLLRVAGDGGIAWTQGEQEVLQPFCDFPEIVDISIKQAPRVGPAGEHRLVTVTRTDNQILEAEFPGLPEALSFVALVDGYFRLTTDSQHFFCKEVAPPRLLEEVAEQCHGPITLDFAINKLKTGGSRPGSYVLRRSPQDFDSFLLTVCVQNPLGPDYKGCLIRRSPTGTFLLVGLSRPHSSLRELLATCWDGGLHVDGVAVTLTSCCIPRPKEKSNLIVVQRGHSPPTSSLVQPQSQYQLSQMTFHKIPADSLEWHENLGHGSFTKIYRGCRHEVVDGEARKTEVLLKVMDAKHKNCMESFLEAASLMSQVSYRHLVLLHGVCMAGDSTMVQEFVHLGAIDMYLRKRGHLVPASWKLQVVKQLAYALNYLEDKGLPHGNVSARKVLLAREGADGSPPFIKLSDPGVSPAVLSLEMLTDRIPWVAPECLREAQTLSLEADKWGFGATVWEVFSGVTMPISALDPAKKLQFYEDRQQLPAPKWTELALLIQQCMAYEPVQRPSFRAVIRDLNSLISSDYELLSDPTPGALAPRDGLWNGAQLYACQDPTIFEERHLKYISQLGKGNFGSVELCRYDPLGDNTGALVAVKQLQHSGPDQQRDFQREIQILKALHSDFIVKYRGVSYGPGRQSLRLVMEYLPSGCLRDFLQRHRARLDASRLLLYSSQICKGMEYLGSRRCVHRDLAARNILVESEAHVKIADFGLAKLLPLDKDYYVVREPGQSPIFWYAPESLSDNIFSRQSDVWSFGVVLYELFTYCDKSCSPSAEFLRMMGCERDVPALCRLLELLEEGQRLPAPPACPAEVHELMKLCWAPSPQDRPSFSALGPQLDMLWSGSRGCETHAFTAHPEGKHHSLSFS
Assay: Biochemical JAK kinase assay (LanthaScreen), JAK3
Details: converted from pIC50 by Cheng-Prusoff; ATP at Km 1.6 μM; read-out: JAK 3 (pKi) (converted)
Method: Assay 1: Biochemical JAK and Tyk2 Kinase Assays A panel of four LanthaScreen JAK biochemical assays (JAK1, 2, 3 and Tyk2) were carried in a common kinase reaction buffer (50 mM HEPES, pH 7.5, 0.01% Brij-35, 10 mM MgCl2, and 1 mM EGTA). Recombinant GST-tagged JAK enzymes and a GFP-tagged STAT1 peptide substrate were obtained from Life Technologies. Serially or discretely diluted compounds were pre-incubated with each of the four JAK enzymes and the substrate in white 384-well microplates (Corning) at ambient temperature for 1 h. ATP was subsequently added to initiate the kinase reactions in 10 μL total volume, with 1% DMSO. […] The plates were allowed to incubate at ambient temperature for 1 h before being read on the EnVision reader (Perkin Elmer). Emission ratio signals (520 nm/495 nm) were recorded and utilized to calculate the percent inhibition values based on DMSO and background controls. For dose-response analysis, percent inhibition data were plotted vs. compound concentrations, and IC50 values were determined from a 4-parameter robust fit model with the Prism software (GraphPad Software). Results were expressed as pIC50 (negative logarithm of IC50) and subsequently converted to pKi (negative logarithm of dissociation constant, Ki) using the Cheng-Prusoff equation.

SMILES: CCS(=O)(=O)N1[C@@H]2CCC[C@H]1C[C@H](N(C)c1nc(CO)c(F)c(Nc3cc(C)[nH]n3)n1)C2 [Compound (I), (2-(((1R,3s,5S)-9-(ethylsulfonyl)-9-azabicyclo[3.3.1]nonan-3-yl)(methyl)amino)-5-fluoro-6-((5-methyl-1H-pyrazol-3-yl)amino)pyrimidin-4-yl)methanol]
- Ki: 0.794 nM
